Experimental data taken from US20080069896A1, “Antitumor Composition” (Kabushiki Kaisha Sangi, priority 2004, published 2008).
Like-named read-outs stand apart in the source and are kept apart here.

Legend:
[1] = system: human lung cancer cell Lu65; test: MTT assay, human lung cancer cell Lu65; format: cell-based
Description: (§1) Effect of platinum tetrachloride/hydroxyapatite (PtCl4/HAP) and hexachloroplatinate/hydroxyapatite (H2PtCl6/HAP) against human cancer cells (MTT assay)
(§2) According to “in vitro toxicity test using MTT”, which is an ordinary test method, MTT assay was performed for PtCl4/HAP (particle diameter 0.1 μm or less), and H2PtCl6/HAP (particle diameter 0.1 μm or less) by using 19 types of human cancer cells. PtCl4/HAP and H2PtCl6/HAP were used by adjusting the final dispersion concentration to 1.0% in a dispersion liquid each containing 10% platinum as a theoretical value. For comparison, MTT assay was performed for PtCl4 and CDDP. PtCl4 was dissolved at an adequate dose, and then used after serial dilution with PBS (−). For CDDP, injection liquid from Malco was used.

[2] = system: human lung cancer cell Lu99; test: MTT assay, human lung cancer cell Lu99; format: cell-based
Description: as §1, §2

[3] = system: fibroblasts at confluency; test: Microscopic observation of toxicity effect during resting stage; format: cell-based, rat
From the text: A male mature rat was deeply anesthetized with ether, and disinfected by wiping carefully its tail with alcohol. The tail end part was cut by several centimeters, and the skin was removed from coccyx. Tendon was attached to the coccyx, and by culturing the same, fibroblasts can be recovered. Coccyx part was further cut finely with a sterilized pair of scissors, and adhered on a sterilized plastic plate with the cut surface down. After resting the plate for a while, DMEM supplemented with 10% FBS was added thereto. In approximately one week, fibroblasts germinated from the coccyx part, and proliferated in the plate. The fibroblasts collected from rat tail end were used for the following experiment.
From the result of Example 7, 2 ppm which is a value of platinum content that kills 50% of fibroblasts in CDDP during resting stage was set as a standard. Then, CDDP, PtCl4/HAP, PtCl4 and HAP dispersion liquids in an amount corresponding to 2 ppm of platinum content, were added to the fibroblasts at confluency in a medium, and cultured for 48 hours.

[4] = Lu65, platinum compound without hydroxyapatite, for comparison
[5] = Lu99, platinum compound without hydroxyapatite, for comparison

| Compound | IC50 of human lung cancer cells by MTT assay [1, 4] [ppm] | Platinum content calculated from IC50 of human lung cancer cell by MTT assay [1, 4] [ppm] | IC50 of human lung cancer cells by MTT assay [2, 5] [ppm] | Platinum content calculated from IC50 of human lung cancer cell by MTT assay [2, 5] [ppm] | Microscopic observation of cell form of cultured fibroblasts [3] | other results |
| --- | --- | --- | --- | --- | --- | --- |
| [Cl][Pt-2]([Cl])([Cl])[Cl] [H2PtCl4, tetrachloroplatinate] | 8.8 | 5.1 | 9.1 | – | – | – |
| [Cl][Pt-2]([Cl])([Cl])([Cl])([Cl])[Cl].[H+].[H+] [H2PtCl6, hexachloroplatinate] | – | – | – | – | – | IC50 of human lung cancer cells by MTT assay [1]: 11.1 ppm; Platinum content calculated from IC50 of human lung cancer cell by MTT assay [1]: 5.3 ppm; IC50 of human lung cancer cells by MTT assay [2]: 7.2 ppm; Platinum content calculated from IC50 of human lung cancer cell by MTT assay [2]: 3.4 ppm |
| [Cl][Pt-2]([Cl])([Cl])[Cl].[K+].[K+] [K2PtCl4, dipotassium platinum tetrachloride] | 58.2 | 27.4 | 12.1 | 5.7 | – | – |
| [Cl][Pt-2]([Cl])([Cl])[Cl].[Na+].[Na+] [Na2PtCl4, disodium platinum tetrachloride] | 8.8 | 4.5 | 9.2 | 4.7 | – | – |
| Hydroxyapatite [HAP] | – | – | – | – | almost no abnormality was observed | – |
| platinum tetrachloride/hydroxyapatite [PtCl4/HAP] | – | – | – | – | fibroblasts did not lose their original form | – |
